From US4737505A, “Analgesic 4-substituted indoles” (priority 1984, dated 1988)
Read-outs that look alike come from different tables or passages of the source.

Assays:
opiate receptor K = target: T1, opiate receptor K (Cavia porcellus, UniProt P41144); assay: Bond to the opiate receptor K in vitro (displacement of 3H Ethylketocyclazocin, guinea-pig cerebellum membranes); assay type: binding; settings: for IC50: 3H Ethylketocyclazocin 1 nM, guinea-pig cerebellum membranes, Tris buffer pH 7.7, 25° C., 40 minutes, read-out: 50% inhibiting concentration (IC50); for relative bond affinity (RBA): relative to product U 50 488 H as reference
T1 construct: Membrane residues prepared from guinea-pig cerebellum; from tissue; host or cells: guinea-pig cerebellum membranes
Method: (2) Bond to the opiate receptor K in vitro
Membrane residues prepared from guinea-pig cerebellum kept at -30° C. for about 30 days were used and these residues were suspended in Tris buffer pH 7.7. Fractions of 2 ml were distributed into hemolysis tubes, and […] Ethylketocyclazocin 1 nM and the product to be studied were added. The products were first tested to 5×10^-6 M in triplicate. When the products tested displaced more than 50% of the radioactivity specifically linked to the receptor, they were tested again according to a range of 7 doses to determine the dose which inhibited by 50% the radioactivity specifically linked to the receptor. In this way, the 50% inhibiting concentration was determined.
The non-specific bond was determined by the addition of a product known as U 50488 H(ref. Up. John) to 10^-5 M in triplicate. After incubating at 25° C. for 40 minutes, returning to the water-bath at 0° C. for 5 minutes, filtering under reduced pressure, and rinsing in Tris buffer pH 7.7, the radioactivity was counted in the presence of scintillating Trition. The results were expressed: either directly as 50% inhibiting concentration (IC50), that is as a concentration of the product studied, expressed in nM, necessary to displace 50% of the specific radioactivity fixed on the receptor studied, or in relative bond affinity (=RBA) taking the product U 50 488 H as reference [formula]

opiate receptor μ = target: T2, opiate receptor μ (Rattus norvegicus, UniProt P33535); assay: Bond to the opiate receptor μ in vitro (displacement of 3H dihydromorphine, rat brain membranes); assay type: binding, rats; settings: for IC50: 3H dihydromorphine 0.7 nM, rat brain membranes, Tris buffer pH 7.7, 25° C., 40 minutes, read-out: 50% inhibiting concentration (IC50); for relative bond affinity (RBA): relative to morphine=100
T2 construct: prepared from brains of rats; from tissue; host or cells: rat brain membranes
Method: (1) Bond to the opiate receptor μ in vitro
Membrane residues preserved at -30° C. for about 30 days and prepared from brains of rats were used in this test and these residues were suspended in Tris buffer pH 7.7. Fractions of 2 ml were distributed into hemolysis tubes and ^3 H dihydromorphine 0.7 nM and the product to be studied were added. The products were first of all tested with 5×10^-6 M in triplicate. When the tested products displaced more than 50% of the radioactivity specifically linked to the receptor, they were tested again according to a range of 7 doses to determine the dose which inhibited by 50% the radioactivity specifically linked to the receptor. The 50% inhibiting concentration was thus determined.
The non-specific bond was determined by addition of 10^-5 M morphine in triplicate. After incubating at 25° C. for 40 minutes, returning to the water-bath at 0° C. for 5 minutes, filtering under vacuum, rinsing with Tris buffer pH 7.7, the radioactivity was counted in the presence of scintillating Trition. The results were expressed: either directly as 50% inhibiting concentration (IC50), that is as a concentration of the product studied, expressed in nM, necessary to displace 50% of the specific radioactivity fixed on the receptor studied, or in relative bond affinity (RBA), taking morphine=100 as a reference [formula]

[1] = Analgesic activity, warm plate test; assay type: in vivo; settings: Mus musculus, 1 h, female mice, 56° C. plate, 60 minutes after treatment, read-out: AD100 (dose which increased the reaction time by 100%)
Method: Female mice weighing from 22 to 24 g were placed one by one on a copper plate maintained at 56° C. The reaction to pain was shown by the animals licking their front paws and the time of this reaction was noted and was only retained when the mice reacted in less than 8 seconds. The animals were divided into equal groups and were treated with the products to be studied, one group receiving only the vehicle. The time of reaction to pain was again measured 30 to 60 minutes after the treatment and the active dose or AD100 was the dose which increased the reaction time by 100%, 60 minutes after the treatment, taking account of the variations of the reaction time of the control animals.

T2 sequence (P33535 whole entry): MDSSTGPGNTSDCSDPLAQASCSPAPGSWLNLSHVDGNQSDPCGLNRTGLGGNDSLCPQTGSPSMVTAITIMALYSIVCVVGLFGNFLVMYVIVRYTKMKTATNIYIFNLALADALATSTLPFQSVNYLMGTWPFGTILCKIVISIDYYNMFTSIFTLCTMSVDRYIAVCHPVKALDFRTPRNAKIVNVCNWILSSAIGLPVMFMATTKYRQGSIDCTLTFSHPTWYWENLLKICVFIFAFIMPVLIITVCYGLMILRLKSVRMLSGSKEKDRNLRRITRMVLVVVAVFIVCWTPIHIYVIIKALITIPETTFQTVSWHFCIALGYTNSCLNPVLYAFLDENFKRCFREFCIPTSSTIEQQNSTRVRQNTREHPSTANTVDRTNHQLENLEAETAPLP
T1 sequence (P41144 whole entry): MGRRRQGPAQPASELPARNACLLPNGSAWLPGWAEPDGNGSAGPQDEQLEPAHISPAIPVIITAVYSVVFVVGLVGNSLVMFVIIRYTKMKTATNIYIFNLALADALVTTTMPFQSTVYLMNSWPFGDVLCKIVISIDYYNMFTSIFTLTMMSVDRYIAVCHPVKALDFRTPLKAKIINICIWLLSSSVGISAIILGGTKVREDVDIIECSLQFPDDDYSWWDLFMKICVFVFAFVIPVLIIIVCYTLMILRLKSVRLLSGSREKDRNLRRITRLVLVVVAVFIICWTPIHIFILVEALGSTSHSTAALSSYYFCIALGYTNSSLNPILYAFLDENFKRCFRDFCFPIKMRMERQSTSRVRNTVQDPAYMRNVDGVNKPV

In the case of `CCCN1CC=C(c2cccc3[nH]ccc23)CC1` [Example 7, 4-(1-propyl-1,2,3,6-tetrahydropyridin-4-yl)-1H-indole], the IC50 (opiate receptor K) is reported as 182 nM and the “relative bond affinity (RBA)” value (opiate receptor K) is reported as 1.4.
In the case of `C=CCOc1ccccc1OCC(O)CN1CC=C(c2cccc3[nH]ccc23)CC1` (stereo not drawn) [Example 11, 4-(1H-indol-4-yl)-α-[[2-(2-propenyloxy)-phenoxy]-methyl]-1,2,3,6-tetrahydro-1-pyridine ethanol], the IC50 (opiate receptor μ) is reported as 9.43 nM and the “relative bond affinity (RBA)” value (opiate receptor μ) is reported as 22.43.
With `C=CCOc1ccccc1OCC(O)CN1CC=C(c2cccc3c2CC(=O)N3)CC1` (centres unmarked) [Example 13, 1,3-dihydro-4-[1-[2-hydroxy-3-[2-(2-propenyloxy)-phenoxy]propyl]-1,2,3,6-tetrahydro-4-pyridinyl]-2H-indol-2-one] the IC50 (opiate receptor μ) was 1.4 nM, the “relative bond affinity (RBA)” value (opiate receptor μ) was 270 and the ED (100% increase in reaction time) ([1]; oral route) was 20 mg/kg.
With `COC1(c2cccc3[nH]ccc23)CCNCC1` [Example 14, 4-(4-methoxy-4-piperidinyl)-1H-indole] the IC50 (opiate receptor μ) was 28 nM, the “relative bond affinity (RBA)” value (opiate receptor μ) was 13 and the ED (100% increase in reaction time) ([1]; central, intracerebral ventricle route) was 0.5 mg/kg.
With `Cl.O=C1Cc2c(cccc2C2=CCN(CCc3ccccc3)CC2)N1` [Example 26, 1,3-dihydro-4-[1-(2-phenylethyl)-1,2,3,6-tetrahydro-4-pyridinyl]-2H-indole-2-one hydrochloride] the IC50 (opiate receptor μ) was 59 nM and the “relative bond affinity (RBA)” value (opiate receptor μ) was 8.2.
In the case of `Cl.O=C1Cc2c(cccc2C2=CCN(CCOc3ccccc3)CC2)N1` [Example 29, 1,3-dihydro-4-[1-(2-phenoxyethyl)-1,2,3,6-tetrahydro-4-pyridinyl]-2H-indol-2-one hydrochloride], the IC50 (opiate receptor μ) is reported as 11 nM, the “relative bond affinity (RBA)” value (opiate receptor μ) is reported as 23 and the IC50 (opiate receptor K) is reported as 152 nM. The “relative bond affinity (RBA)” value (opiate receptor K) was 1.1.
For `Cl.O=C1Cc2c(cccc2C2=CCN(CCCC(=O)c3ccc(F)cc3)CC2)N1` [Example 32, 1,3-dihydro-4-[1-[(4-fluorophenyl)-4-oxobutyl]-1,2,3,6-tetrahydropyridin-4-yl]-2H-indole-2-one hydrochloride], the IC50 (opiate receptor μ) was 3.5 nM, the “relative bond affinity (RBA)” value (opiate receptor μ) was 62 and the IC50 (opiate receptor K) was 460 nM. The “relative bond affinity (RBA)” value (opiate receptor K) was 1.3.
